Measurements taken from patent US20250171417A1, “HETEROCYCLIC DERIVATIVE, AND COMPOSITION AND PHARMACEUTICAL USE THEREOF” (Xizang Haisco Pharmaceutical Co., Ltd., priority 2021, published 2025).
Like-named read-outs stand apart in the source and are kept apart here.

Experiments:
[1] = Pharmacokinetic test in rats; type: in vivo; conditions: rat, plasma, po, male SD rats; for bioavailability: i.g. 5 mg/kg vs intravenous 2 mg/kg; for AUC(0-t): i.g. 5 mg/kg
Method: Test objective: In this experiment, a single dose of each test compound was administered to SD rats intravenously and intragastrically, and the concentrations of the test compounds in plasma of rats were measured to evaluate the pharmacokinetic characteristics of the test compounds in rats.
Experimental animals: male SD rats, 200-250 g, 6-8 weeks old, 6 rats/compound, purchased from Chengdu Ddossy Experimental Animals Co., Ltd.
Experimental method: on the day of the test, 6 SD rats were randomly grouped according to their body weight; the animals were fasted with water available for 12 to 14 hours one day before the administration of a test compound, and were fed 4 hours after the administration.
Sampling: Before and after the administration, 0.1 mL of blood samples were drawn from the orbits of the animals under isoflurane anesthesia, and placed in an EDTAK2 centrifuge tube. Centrifugation was carried out at 5000 rpm at 4° C. for 10 min, and the plasma was collected.
Time points for plasma collection in IV&PO group: 0, 5 min, 15 min, 30 min, 1 h, 2 h, 4 h, 6 h, 8 h, and 24 h.
Before analysis and detection, all samples were stored at −60° C. The samples were analyzed quantitatively by LC-MS/MS.

[2] = tested on: Prostate cancer cells 22RV1; test: Experiment on inhibiting 22RV1 cell proliferation (CellTiter-Glo, 7 days); type: cell-based; conditions: Homo sapiens, 168 h, 22RV1 cells, 7 days incubation, read-out: IC50 values for inhibition of 22RVI cells
How it was run: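 22RV1 cells at 2000/well in 1% charcoal-stripped-FBS phenol red-free medium, treated next day with compound for 7 days at 37 °C, 5% CO2. Viability by CellTiter-Glo luminescence; inhibition relative to DMSO vehicle, IC50 from dose-response fit.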

[3] = cells with nM printed beside the value

Row | SMILES | AUC(0-t) [1] [ng·h/mL] | IC50 [2, 3] [nM] | bioavailability [1] [%] | IC50 ([2]; cells without a unit of their own (μM)) [nM]
1 | CC(C)(C(=O)Nc1ccc(C#N)c(Br)c1)n1cc(C#CC2CN(c3ccc4c(c3)C(=O)N(C3CCC(=O)NC3=O)C4=O)C2)cn1 (centres unmarked) [Compound 37, N-(3-bromo-4-cyanophenyl)-2-(4-((1-(2-(2,6-dioxopiperidin-3-yl)-1,3-dioxoisoindolin-5-yl)azetidin-3-yl)ethynyl)-1H-pyrazol-1-yl)-2-methylpropanamide] | 55800 ± 22600 | < 50 | 69.8 ± 28 | 
2 | CC(C)(C(=O)Nc1ccc(C#N)c(C(F)(F)F)c1)n1cc(C#CC2CN(c3ccc4c(c3)CN(C3CCC(=O)NC3=O)C4=O)C2)cn1 (centres unmarked) [Compound 6] | 8960 ± 2940 |  | 47.3 ± 16 | < 1000
3 | CC(C)(C(=O)Nc1ccc(C(F)(F)F)cc1-n1cccc1)n1cc(C#CC2CN(c3ccc4c(c3)C(=O)N(C3CCC(=O)NC3=O)C4=O)C2)cn1 (centres unmarked) [Compound 133, N-(2-(1H-pyrrol-1-yl)-4-(trifluoromethyl)phenyl)-2-(4-((1-(2-(2,6-dioxopiperidin-3-yl)-1,3-dioxoisoindolin-5-yl)azetidin-3-yl)ethynyl)-1H-pyrazol-1-yl)-2-methylpropanamide] | 8290 ± 935 | < 100 | 70.3 ± 7.9 | 

The next lines start with results.

Row | AUC(0-t) [1] [ng·h/mL] | IC50 [2, 3] [nM] | SMILES | bioavailability [1] [%] | IC50 ([2]; cells without a unit of their own (μM)) [nM]
4 | 39700 ± 1890 | < 100 | CC(C)(C(=O)Nc1ccc(C(F)(F)F)cc1F)n1cc(C#CC2CN(c3ccc4c(c3)C(=O)N(C3CCC(=O)NC3=O)C4=O)C2)cn1 (centres unmarked) [Compound 31, N-(2-fluoro-4-(trifluoromethyl)phenyl)-2-(4-((1-(2-(2,6-dioxopiperidin-3-yl)-1,3-dioxoisoindolin-5-yl)azetidin-3-yl)ethynyl)-1H-pyrazol-1-yl)-2-methylpropanamide] |  | 
5 | 7200 ± 1210 | < 50 | CC(C)(C(=O)Nc1ccc(C#N)c(N2CCCC2)c1)n1cc(C#CC2CN(c3ccc4c(c3)C(=O)N(C3CCC(=O)NC3=O)C4=O)C2)cn1 (centres unmarked) [Compound 38, N-(4-cyano-3-(pyrrolidin-1-yl)phenyl)-2-(4-((1-(2-(2,6-dioxopiperidin-3-yl)-1,3-dioxoisoindolin-5-yl)azetidin-3-yl)ethynyl)-1H-pyrazol-1-yl)-2-methylpropanamide] | 43.5 ± 7.3 | 
